Laboratory results as given in patent US9212168B2 (priority 2011, dated 2015).

system: HCV genotype 1a replicon; test: HCV genotype 1a replicon assay (NS3 protease activity readout); assay type: cell-based, hepatitis C virus; conditions: HCV genotype 1a replicon
Method: Assay 2: HCV Genotype 1a Replicon Assay
The HCV genotype 1a replicon cell line was obtained from Apath LLC (APC89; Huh7.5 cell background). This subgenomic replicon contains the N-terminus of the HCV core protein fused to the neomycin-resistance selectable marker. The EMCV IRES lies downstream and drives expression of the non-structural proteins NS3-NS5B. Compound potencies were determined using the NS3-specific protease activity in lysates as a measurement of compound inhibition of replicon levels.
Cells were grown at 37° C. in a 5% CO2 humidified incubator in DMEM (Invitrogen) with 10% FBS (HyClone), 1×NEAA (Invitrogen), 1× Pen-Strep (Invitrogen), and 850 μg/mL G418 (Invitrogen). On day 1 of the assay, cells were plated at 15,000 cells/well in black 96-well tissue culture plates (Costar) in 200 μL media lacking G418. Four hours later, once the cells had adhered, the media was removed and replaced with media (no G418) containing dose-responses of test compounds. Compounds were initially diluted in DMSO and then diluted another 200× in media to bring the final DMSO concentration down to 0.5%. The cells were incubated with test compounds for 48 or 72 hours. At the end of the incubation period, media and compound were removed from the plates.
To determine the NS3-specific protease activity in lysates, the cells were lysed at room temperature in 50 μL/well of 50 mM Hepes pH 7.5, 150 mM NaCl, 15% Glycerol, 0.15% Triton X-100, 10 mM DTT for 20 minutes with shaking. 50 μL of an NS3/4a protease-specific FRET substrate (Anaspec RET S1 Cat#22991) was then added to the wells at a final concentration of 15 μM. The plates were incubated at 37° C. for 20 minutes, which corresponds to a timepoint at which the protease activity is still in the linear phase. Protease activity was determined by measuring fluorescence (Excitation: 340 nm; Emission: 509 nm).
To analyze the data, the fluorescence was plotted vs. the compound concentration, and EC50 values were determined from a 4-parameter robust fit model using GraphPad Prism software.

SMILES | Genotype 1a
COC(=O)NC(C(=O)N1C[C@@H](C)C[C@H]1c1nc(-c2ccc(-c3cc(Cl)c(NC(=O)c4ccc(N5CCN(C(=O)C(C)(C)CO)C[C@H]5C)nc4)cc3C(F)(F)F)cc2)c[nH]1)C1CCS(=O)(=O)CC1 (single isomer, unassigned) [Example 19-1] | D (D represents pEC50>10 (EC50<0.1 nM))
COC(=O)N[C@@H](C(=O)N1C[C@@H](C)C[C@H]1c1nc(-c2ccc(-c3cc(Cl)c(NC(=O)c4ccc(N5CCN(C(=O)C(C)(C)C)C[C@H]5C)nc4)cc3C(F)(F)F)cc2)c[nH]1)C1CCCCC1 [Example 19-3] | A (A represents a pEC50 value between 6 and 8 (EC50 between 1 μM and 10 nM))
COC(=O)N[C@H](C(=O)N1C[C@@H](C)C[C@H]1c1nc(-c2ccc(-c3cc(Cl)c(NC(=O)c4ccc(N5CCN(C(=O)C6CC6(Cl)Cl)C[C@H]5C)nc4)cc3OC(F)(F)F)cc2)c[nH]1)C(C)C (single isomer, unassigned) [Example 1-57] | D (D represents pEC50>10 (EC50<0.1 nM))
COC(=O)N[C@H](C(=O)N1C[C@@H](C)C[C@H]1c1nc(-c2ccc(-c3cc(Cl)c(NC(=O)c4ccc(N5CCN(C(=O)C(C)(C)CO)C[C@H]5C)nc4)cc3C(F)(F)F)cc2)c[nH]1)C1CCCCC1 [Example 19-7] | B (B represents pEC50 between 8 and 9 (EC50 between 1 and 10 nM))
COC(=O)N[C@H](C(=O)N1C[C@@H](N(C)C)C[C@H]1c1nc(-c2ccc(-c3cc(Cl)c(NC(=O)c4ccc(N5CCN(C(=O)C(C)(C)C)C[C@H]5C)nc4)cc3OC(F)(F)F)cc2)c[nH]1)C(C)C [Example 2-7] | C (C represents pEC50 between and 9 and about 10, (EC50 between 1 nM and 0.1 nM))
CNC(=O)N1C[C@@H](C)N(c2ccc(C(=O)Nc3cc(OC(F)(F)F)c(-c4ccc(-c5c[nH]c([C@@H]6C[C@H](OC)CN6C(=O)[C@@H](NC(=O)OC)C6CCOCC6)n5)cc4)cc3Cl)cn2)C[C@@H]1C [Example 28-8] | D (D represents pEC50>10 (EC50<0.1 nM))
COC(=O)N[C@H](C(=O)N1C[C@@H](C)C[C@H]1c1nc(-c2ccc(-c3ccc(C(=O)Nc4ccc(N5C[C@H](C)N(C(=O)C6CC6(F)F)C[C@H]5C)nc4)cc3OC(F)(F)F)cc2)c[nH]1)C(C)C (stereo partly shown) [Example 4-22] | C (C represents pEC50 between and 9 and about 10, (EC50 between 1 nM and 0.1 nM))
COC(=O)NC(C(=O)N1C[C@@H](C)C[C@H]1c1nc(-c2ccc(-c3cc(Cl)c(C(=O)Nc4ccc(N5CCN(C(=O)C(C)(C)C)C[C@H]5C)nc4)cc3OC(F)(F)F)cc2)c[nH]1)C1C[C@@H](C)O[C@@H](C)C1 (stereo partly shown) [Example 23-1] | A (A represents a pEC50 value between 6 and 8 (EC50 between 1 μM and 10 nM))
COC(=O)N[C@H](C(=O)N1C[C@@H](C)C[C@H]1c1nc(-c2ccc(-c3cc(Cl)c(NC(=O)c4ccc(N5CCN(C(=O)[C@H]6CCCN6C(=O)OC)C[C@H]5C)nc4)cc3OC(F)(F)F)cc2)c[nH]1)C(C)C [Example 1-37] | D (D represents pEC50>10 (EC50<0.1 nM))
COC(=O)NC(C(=O)N1C[C@@H](OC)C[C@H]1c1nc(-c2ccc(-c3cc(Cl)c(NC(=O)c4ccc(N5CCN(C(=O)C(C)(C)CO)C[C@H]5C)nc4)cc3C(F)(F)F)cc2)c[nH]1)C1CCS(=O)(=O)CC1 (single isomer, unassigned) [Example 19-12] | D (D represents pEC50>10 (EC50<0.1 nM))
CCC(=O)N1CCC[C@@H]1C(=O)N1CCN(c2ccc(C(=O)Nc3cc(OC(F)(F)F)c(-c4ccc(-c5c[nH]c([C@@H]6C[C@H](C)CN6C(=O)[C@@H](NC(=O)OC)C(C)C)n5)cc4)cc3Cl)cn2)[C@H](C)C1 [Example 1-48] | D (D represents pEC50>10 (EC50<0.1 nM))
COC(=O)N[C@H](C(=O)N1C[C@@H](C)C[C@H]1c1nc(-c2ccc(-c3ccc(C(=O)Nc4ccc(N5CCN(C(=O)C6CC6(Cl)Cl)C[C@H]5C)nc4)cc3OC(F)(F)F)cc2)c(Cl)[nH]1)C(C)C (stereo partly shown) [Example 4-30] | C (C represents pEC50 between and 9 and about 10, (EC50 between 1 nM and 0.1 nM))
COC(=O)N[C@H](C(=O)N1C[C@@H](OC)C[C@H]1c1nc(-c2ccc(-c3cc(Cl)c(NC(=O)c4ccc(N5CCN(C(=O)C(C)(C)C)C[C@H]5C)nc4)cc3C(F)(F)F)cc2)c[nH]1)C1CCCCC1 [Example 19-17] | C (C represents pEC50 between and 9 and about 10, (EC50 between 1 nM and 0.1 nM))
COC(=O)N[C@H](C(=O)N1C[C@@H](C)C[C@H]1c1nc(-c2ccc(-c3cc(F)c(NC(=O)c4ccc(N5CCN(C(=O)NN(C)C)C[C@H]5C)nc4)cc3OC(F)(F)F)cc2)c[nH]1)C(C)C [Example 1-95] | C (C represents pEC50 between and 9 and about 10, (EC50 between 1 nM and 0.1 nM))
COC[C@H]1C[C@@H](c2nc(-c3ccc(-c4ccc(C(=O)Nc5ccc(N6CCN(C(=O)C(C)(C)C)C[C@H]6C)nc5)c(Cl)c4OC(F)(F)F)cc3)c[nH]2)N(C(=O)[C@@H](NC(=O)OC)C(C)C)C1 [Example 25-7] | B (B represents pEC50 between 8 and 9 (EC50 between 1 and 10 nM))
COC(=O)N[C@H](C(=O)N1C[C@@H](C)C[C@H]1c1nc(-c2ccc(-c3ccc(C(=O)Nc4ccc(N5CCN(C(=O)N(C)C)C[C@H]5C)nc4)cc3OC(F)(F)F)cc2)c[nH]1)C(C)C [Example 4-33] | C (C represents pEC50 between and 9 and about 10, (EC50 between 1 nM and 0.1 nM))
COC(=O)N[C@H](C(=O)N1C[C@@H](OC)C[C@H]1c1nc(-c2ccc(-c3cc(Cl)c(C(=O)Nc4ccc(N5CCN(C(=O)C(C)(C)CO)C[C@H]5C)nc4)cc3OC(F)(F)F)cc2)c[nH]1)C1CCOCC1 [Example 22-17] | D (D represents pEC50>10 (EC50<0.1 nM))
COC(=O)NC(C(=O)N1CC(F)CC1c1nc(-c2ccc(-c3cc(Cl)c(NC(=O)c4ccc(N5CCN(C(=O)C(C)(C)C)CC5C)nc4)cc3OC(F)(F)F)cc2)c[nH]1)C1CCOCC1 (stereo not shown) [Example 29-1] | D (D represents pEC50>10 (EC50<0.1 nM))

same assay, conditions: Hepatitis C virus, read-out: Genotype 1a, HCV genotype 1a replicon

SMILES | EC50 [pM]
CCN(C)C(C)C(=O)N1CCN(c2ccc(C(=O)Nc3cc(OC(F)(F)F)c(-c4ccc(-c5c[nH]c([C@@H]6C[C@H](C)CN6C(=O)[C@@H](NC(=O)OC)C(C)C)n5)cc4)cc3Cl)cn2)[C@H](C)C1 (stereo partly shown) [Example 12-22] | 100 to 1000
COC(=O)N[C@H](C(=O)N1C[C@@H](C)C[C@H]1c1nc(-c2ccc(-c3cc(Cl)c(NC(=O)c4ccc(N5CCN(C(=O)C6(C)COC6)C[C@H]5C)nc4)cc3OC(F)(F)F)cc2)c[nH]1)C(C)C [Example 12-48] | < 100
COC(=O)N[C@H](C(=O)N1C[C@@H](OC)C[C@H]1c1nc(-c2ccc(-c3cc(Cl)c(NC(=O)c4ccc(N5CCN(C(=O)C(C)(C)CO)C[C@H]5C)nc4)cc3OC(F)(F)F)cc2)c(CO)[nH]1)C(C)C [Example 5-17] | < 100
COC(=O)N[C@H](C(=O)N1C[C@@H](C)C[C@H]1c1nc(-c2ccc(-c3cc(Cl)c(NC(=O)c4ccc(N5CCN(C(=O)C(C)(C)C)C[C@H]5C)nc4)c(Cl)c3OC(F)(F)F)cc2)c[nH]1)C(C)C [Example 5-14] | 100 to 1000
C[C@H]1C[C@@H](c2nc(-c3ccc(-c4cc(Cl)c(NC(=O)c5ccc(N6CCN(C(=O)C(C)(C)C)C[C@H]6C)nc5)cc4OC(F)(F)F)cc3)c[nH]2)N(C(=O)C(c2ccccc2)N2CCNCC2)C1 (stereo partly shown) [Example 13-3] | 100 to 1000
COC(=O)N1CCN(C(C(=O)N2C[C@@H](C)C[C@H]2c2nc(-c3ccc(-c4cc(Cl)c(NC(=O)c5ccc(N6CCN(C(=O)C(C)(C)C)C[C@H]6C)nc5)cc4OC(F)(F)F)cc3)c[nH]2)c2ccccc2)CC1 (stereo partly shown) [Example 13-4] | 100 to 1000
COC(=O)N[C@H](C(=O)N1C[C@@H](C)C[C@H]1c1nc(-c2ccc(-c3cc(Cl)c(NC(=O)c4ccc(N5CCN(C(=O)C(C)(C)CNC(=O)CCCC(=O)O)C[C@H]5C)nc4)cc3OC(F)(F)F)cc2)c[nH]1)C(C)C [Example 12-34] | 100 to 1000
COC(=O)N[C@H](C(=O)N1C[C@@H](C)C[C@H]1c1nc(-c2ccc(-c3cc(Cl)c(NC(=O)c4ccc(N5CCN(C(=O)C6CNC6)C[C@H]5C)nc4)cc3OC(F)(F)F)cc2)c[nH]1)C(C)C [Example 12-51] | 100 to 1000
COC(=O)N[C@H](C(=O)N1CC(C)(C)C[C@H]1c1nc(-c2ccc(-c3ccc(C(=O)Nc4ccc(N5CCN(C(=O)C6CC6(C)C)C[C@H]5C)nc4)cc3OC(F)(F)F)cc2)c[nH]1)C(C)C (stereo partly shown) [Example 6-8] | 100 to 1000
COC(=O)NC(C(=O)N1C[C@@H](C)C[C@H]1c1nc(-c2ccc(-c3ccc(C(=O)Nc4ccc(N5CCN(C(=O)C(C)(C)C)C[C@H]5C)nc4)c(F)c3OC(F)(F)F)cc2)c[nH]1)C(C)C (stereo partly shown) [Example 25-1] | 100 to 1000
